# Reference: paper PMC3245313, “Helicobacter pylori versus the Host: Remodeling of the Bacterial Outer Membrane Is Required for Survival in the Gastric Mucosa” (PLoS Pathogens, 2011)
# Like-named read-outs stand apart in the source and are kept apart here. Where a SMILES comes first, the peptide text is derived from it. Bridges are numbered along the chain shown (N, C = ends). Where no end group is shown, it is not given here.
# How the values were obtained:
# H. pylori J99 lpxE [1] = system: H. pylori J99 lpxE
# H. pylori J99 lpxF [2] = system: H. pylori J99 lpxF
# H. pylori J99 lpxE/F [3] = system: H. pylori J99 lpxE/F
# H. pylori J99 Wild Type [4] = system: H. pylori J99 Wild Type
# H. pylori J99 lpxR [5] = system: H. pylori J99 lpxR
# [6] = system: H. pylori X47 lpxF, lpxF+; type: cell-based, Helicobacter pylori; details: Polymyxin B E-Test strips on TSA with 5% blood, average of three experiments
# H. pylori B128 lpxF = type: cell-based, Helicobacter pylori; details: Polymyxin B E-Test strips on TSA with 5% blood, average of three experiments
# H. pylori X47 Wild Type = type: cell-based, Helicobacter pylori; details: Polymyxin B E-Test strips on TSA with 5% blood, average of three experiments
# H. pylori J99 lpxF [7] = type: cell-based, Helicobacter pylori
# H. pylori X47 lpxF = type: cell-based, Helicobacter pylori; details: Polymyxin B E-Test strips on TSA with 5% blood, average of three experiments
# H. pylori X47 lpxE = type: cell-based, Helicobacter pylori; details: Polymyxin B E-Test strips on TSA with 5% blood, average of three experiments
# H. pylori J99 lpxE [8] = type: cell-based, Helicobacter pylori
# H. pylori B128 lpxE = type: cell-based, Helicobacter pylori; details: Polymyxin B E-Test strips on TSA with 5% blood, average of three experiments
# H. pylori X47 lpxE/F = type: cell-based, Helicobacter pylori; details: Polymyxin B E-Test strips on TSA with 5% blood, average of three experiments
# H. pylori B128 lpxE/F = type: cell-based, Helicobacter pylori; details: Polymyxin B E-Test strips on TSA with 5% blood, average of three experiments
# H. pylori B128 Wild Type = type: cell-based, Helicobacter pylori; details: Polymyxin B E-Test strips on TSA with 5% blood, average of three experiments
# [9] = system: H. pylori wild type strains; details: cited from earlier work
# Experimental: Resistance to CAMPs is of great importance to all mucosal pathogens. This is especially true for H. pylori whose only known reservoir is the human gastric mucosal surface. H. pylori is highly resistant to the CAMP polymyxin B (PMB) with the minimal inhibitory concentration (MIC) of wild type strains ranging from 250–1000 µg/ml peptide. […] MICs were determined for all strains using PMB Etest strips. H. pylori wild type strain J9 ...
# H. pylori J99 lpxR [10] = type: cell-based, Helicobacter pylori; details: Polymyxin B E-Test strips on TSA with 5% blood, average of three experiments
# H. pylori J99 lpxE/F [11] = type: cell-based, Helicobacter pylori
# [12] = system: H. pylori J99 lpxF, lpxF+; type: cell-based, Helicobacter pylori; details: Polymyxin B E-Test strips on TSA with 5% blood, average of three experiments
# [13] = system: H. pylori B128 lpxE, lpxE+; type: cell-based, Helicobacter pylori; details: Polymyxin B E-Test strips on TSA with 5% blood, average of three experiments
# H. pylori J99 Wild Type [14] = type: cell-based, Helicobacter pylori; details: Polymyxin B E-Test strips on TSA with 5% blood, average of three experiments
compound,measurement,setting,value
"CC[C@H](C)[C@@H]1NC(=O)[C@@H]2CSSC[C@@H]3NC(=O)[C@H](Cc4ccccc4)NC(=O)[C@H](C)NC(=O)[C@H](Cc4c[nH]c5ccccc45)NC(=O)[C@H](CC(C)C)NC(=O)[C@H](CCCNC(=N)N)NC(=O)CNC(=O)[C@H](CCC(N)=O)NC(=O)[C@H](Cc4ccc(O)cc4)NC(=O)[C@H]([C@@H](C)CC)NC(=O)[C@H](CSSC[C@H](NC(=O)[C@H](Cc4ccc(O)cc4)NC(=O)[C@@H](N)CSSC[C@@H](C(=O)O)NC3=O)C(=O)N[C@@H](CCCNC(=N)N)C(=O)N[C@@H]([C@@H](C)CC)C(=O)N3CCC[C@H]3C(=O)N[C@@H](C)C(=O)N2)NC(=O)[C@H]([C@@H](C)O)NC(=O)CNC(=O)[C@H](Cc2ccc(O)cc2)NC(=O)[C@H](CCCNC(=N)N)NC(=O)[C@H](CCCNC(=N)N)NC(=O)[C@H](CCC(=O)O)NC(=O)CNC(=O)[C@H](C)NC1=O [HNP2] (H-CYCRIPACIAGERRYGTCIYQGRLWAFCC-OH; disulfide 1-29, 3-18, 8-28 (inferred); N-terminus and C-terminus assumed)",Minimal Inhibitory Concentration (MIC),"H. pylori J99 lpxE [1]; J99 lpxE, 48 h",>25 µg/mL
same,Minimal Inhibitory Concentration (MIC),"H. pylori J99 lpxF [2]; J99 lpxF, 48 h",>25 µg/mL
same,Minimal Inhibitory Concentration (MIC),"H. pylori J99 lpxE/F [3]; J99 lpxE/F, 48 h",>25 µg/mL
same,Minimal Inhibitory Concentration (MIC),"H. pylori J99 Wild Type [4]; J99 Wild Type, 48 h",>25 µg/mL
same,Minimal Inhibitory Concentration (MIC),"H. pylori J99 lpxR [5]; J99 lpxR, 48 h",>25 µg/mL
CC[C@H](C)[C@H](NC(=O)[C@H](CCCCN)NC(=O)[C@H](CCC(=O)O)NC(=O)[C@H](CCCCN)NC(=O)[C@H](CO)NC(=O)[C@H](CCCCN)NC(=O)[C@H](CCCNC(=N)N)NC(=O)[C@H](Cc1ccccc1)NC(=O)[C@H](Cc1ccccc1)NC(=O)[C@H](CC(=O)O)NC(=O)CNC(=O)[C@H](CC(C)C)NC(=O)[C@@H](N)CC(C)C)C(=O)NCC(=O)N[C@@H](CCCCN)C(=O)N[C@@H](CCC(=O)O)C(=O)N[C@@H](Cc1ccccc1)C(=O)N[C@@H](CCCCN)C(=O)N[C@@H](CCCNC(=N)N)C(=O)N[C@H](C(=O)N[C@H](C(=O)N[C@@H](CCC(N)=O)C(=O)N[C@@H](CCCNC(=N)N)C(=O)N[C@H](C(=O)N[C@@H](CCCCN)C(=O)N[C@@H](CC(=O)O)C(=O)N[C@@H](Cc1ccccc1)C(=O)N[C@@H](CC(C)C)C(=O)N[C@@H](CCCNC(=N)N)C(=O)N[C@@H](CC(N)=O)C(=O)N[C@@H](CC(C)C)C(=O)N[C@H](C(=O)N1CCC[C@H]1C(=O)N[C@@H](CCCNC(=N)N)C(=O)N[C@H](C(=O)N[C@@H](CCC(=O)O)C(=O)N[C@@H](CO)C(=O)O)[C@@H](C)O)C(C)C)[C@@H](C)CC)C(C)C)[C@@H](C)CC [LL37],Minimal Inhibitory Concentration (MIC),"H. pylori J99 lpxE [1]; J99 lpxE, 48 h",40 ± 0 µg/mL
same,Minimal Inhibitory Concentration (MIC),"H. pylori J99 lpxF [2]; J99 lpxF, 48 h",19 ± 2 µg/mL
same,Minimal Inhibitory Concentration (MIC),"H. pylori J99 lpxE/F [3]; J99 lpxE/F, 48 h",11 ± 1 µg/mL
same,Minimal Inhibitory Concentration (MIC),"H. pylori J99 Wild Type [4]; J99 Wild Type, 48 h",40 ± 5 µg/mL
same,Minimal Inhibitory Concentration (MIC),"H. pylori J99 lpxR [5]; J99 lpxR, 48 h",41 ± 6 µg/mL
AKKVFKRLEKLFSKIQNDK [HP2.20],Minimal Inhibitory Concentration (MIC),"H. pylori J99 lpxE [1]; J99 lpxE, 48 h",583 ± 29 µg/mL
same,Minimal Inhibitory Concentration (MIC),"H. pylori J99 lpxF [2]; J99 lpxF, 48 h",60 ± 0 µg/mL
same,fold decrease in resistance,"H. pylori J99 lpxE/F [3]; J99 double lpxE/F mutant versus wild type, broth dilution MICs",≥ 60 fold
same,Minimal Inhibitory Concentration (MIC),"H. pylori J99 lpxE/F [3]; J99 lpxE/F, 48 h",18 ± 3 µg/mL
same,Minimal Inhibitory Concentration (MIC),"H. pylori J99 Wild Type [4]; J99 Wild Type, 48 h",>1250 µg/mL
same,Minimal Inhibitory Concentration (MIC),"H. pylori J99 lpxR [5]; J99 lpxR, 48 h",>1250 µg/mL
AKRHHGYKRKFH-NH2 (C-terminus assumed) [P113],Minimal Inhibitory Concentration (MIC),"H. pylori J99 lpxE [1]; J99 lpxE, 48 h",341 ± 14 µg/mL
same,Minimal Inhibitory Concentration (MIC),"H. pylori J99 lpxF [2]; J99 lpxF, 48 h",178 ± 3 µg/mL
same,Minimal Inhibitory Concentration (MIC),"H. pylori J99 lpxE/F [3]; J99 lpxE/F, 48 h",141 ± 14 µg/mL
same,Minimal Inhibitory Concentration (MIC),"H. pylori J99 Wild Type [4]; J99 Wild Type, 48 h",>400 µg/mL
same,Minimal Inhibitory Concentration (MIC),"H. pylori J99 lpxR [5]; J99 lpxR, 48 h",>400 µg/mL
"GIGDPVTCLKSGAICHPVFCPRRYKQIGTCGLPGTKCCKKP (disulfide 8-37, 15-30, 20-38 (inferred)) [HBD2]",Minimal Inhibitory Concentration (MIC),"H. pylori J99 lpxE [1]; J99 lpxE, 48 h",23 ± 3 µg/mL
same,Minimal Inhibitory Concentration (MIC),"H. pylori J99 lpxF [2]; J99 lpxF, 48 h",12 ± 1 µg/mL
same,Minimal Inhibitory Concentration (MIC),"H. pylori J99 lpxE/F [3]; J99 lpxE/F, 48 h",5.0 ± 1.0 µg/mL
same,Minimal Inhibitory Concentration (MIC),"H. pylori J99 Wild Type [4]; J99 Wild Type, 48 h",>25 µg/mL
same,Minimal Inhibitory Concentration (MIC),"H. pylori J99 lpxR [5]; J99 lpxR, 48 h",>25 µg/mL
polymyxin B,Minimal Inhibitory Concentration (MIC),H. pylori J99 lpxE [1],22 ± 2 µg/mL
same,Minimal Inhibitory Concentration (MIC),H. pylori J99 lpxF [2],3.8 ± 0.3 µg/mL
same,Polymyxin MIC,[6],682.7 ± 147.8 µg/mL
same,Polymyxin MIC,H. pylori B128 lpxF,1.8 ± 0.3 µg/mL
same,Minimal Inhibitory Concentration (MIC),H. pylori J99 lpxE/F [3],0.6 ± 0.1 µg/mL
same,Polymyxin MIC,H. pylori X47 Wild Type,768.0 ± 0.0 µg/mL
same,fold decrease in resistance (increase in sensitivity) to PMB,"H. pylori J99 lpxF [7]; J99 lpxF mutant versus wild type J99, Etest MICs",360 fold
same,Polymyxin MIC,"H. pylori J99 lpxF [7]; J99 lpxF, Polymyxin B E-Test strips on TSA with 5% blood, average of three experiments",1.3 ± 0.3 µg/mL
same,Polymyxin MIC,H. pylori X47 lpxF,2.3 ± 0.6 µg/mL
same,Polymyxin MIC,H. pylori X47 lpxE,37.3 ± 9.2 µg/mL
same,fold decrease in resistance (increase in sensitivity) to PMB,"H. pylori J99 lpxE [8]; J99 lpxE mutant versus wild type J99, Etest MICs",16 fold
same,Polymyxin MIC,"H. pylori J99 lpxE [8]; J99 lpxE, Polymyxin B E-Test strips on TSA with 5% blood, average of three experiments",29.3 ± 4.6 µg/mL
same,Polymyxin MIC,H. pylori B128 lpxE,26.7 ± 4.6 µg/mL
same,Polymyxin MIC,H. pylori X47 lpxE/F,0.55 ± 0.08 µg/mL
same,Polymyxin MIC,H. pylori B128 lpxE/F,0.61 ± 0.04 µg/mL
same,Polymyxin MIC,H. pylori B128 Wild Type,213.3 ± 37.0 µg/mL
same,Minimal Inhibitory Concentration (MIC),[9],250 to 1000 µg/mL
same,Polymyxin MIC,H. pylori J99 lpxR [10],512.0 ± 0.0 µg/mL
same,Polymyxin MIC,H. pylori J99 lpxR [10]; listed as PMB,512 ± 0.0 µg/mL
same,fold decrease in resistance (increase in sensitivity) to PMB,"H. pylori J99 lpxE/F [11]; J99 double lpxE/F mutant versus wild type J99, Etest MICs",1020 fold
same,Polymyxin MIC,"H. pylori J99 lpxE/F [11]; J99 lpxE/F, Polymyxin B E-Test strips on TSA with 5% blood, average of three experiments",0.46 ± 0.03 µg/mL
same,Minimal Inhibitory Concentration (MIC),H. pylori J99 Wild Type [4],>250 µg/mL
same,Polymyxin MIC,[12],512.0 ± 0.0 µg/mL
same,Polymyxin MIC,[13],234.7 ± 37.0 µg/mL
same,Minimal Inhibitory Concentration (MIC),H. pylori J99 lpxR [5],>250 µg/mL
same,Polymyxin MIC,H. pylori J99 Wild Type [14],469.3 ± 73.9 µg/mL
